According to PubChem BioAssay (NCI):
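Interpolation was linear, between the two tested concentrations surrounding the appropriate level; five concentrations were tested over 48 hours in 96-well plates. GI50: concentration for 50% inhibition of growth. The concentration for full growth arrest is given as TGI.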

Assays:
Test in all cases: NCI-60 cell line screen, 48 h
786-0 renal = tested on: 786-0 renal
A498 renal = tested on: A498 renal
A549 NSCLC = tested on: A549 NSCLC
ACHN renal = tested on: ACHN renal
BT-549 breast = tested on: BT-549 breast
CAKI-1 renal = tested on: CAKI-1 renal
CCRF-CEM leukemia = tested on: CCRF-CEM leukemia
COLO 205 colon = tested on: COLO 205 colon
DU-145 prostate = tested on: DU-145 prostate
EKVX NSCLC = tested on: EKVX NSCLC
HCC-2998 colon = tested on: HCC-2998 colon
HCT-116 colon = tested on: HCT-116 colon
HCT-15 colon = tested on: HCT-15 colon
HL-60(TB) leukemia = tested on: HL-60(TB) leukemia
HOP-62 NSCLC = tested on: HOP-62 NSCLC
HOP-92 NSCLC = tested on: HOP-92 NSCLC
HS 578T breast = tested on: HS 578T breast
HT29 colon = tested on: HT29 colon
IGROV1 ovarian = tested on: IGROV1 ovarian
K-562 leukemia = tested on: K-562 leukemia
KM12 colon = tested on: KM12 colon
LOX IMVI melanoma = tested on: LOX IMVI melanoma
M14 melanoma = tested on: M14 melanoma
MCF7 breast = tested on: MCF7 breast
MDA-MB-231 breast = tested on: MDA-MB-231 breast
MDA-MB-435 = tested on: MDA-MB-435
NCI-H226 lung = tested on: NCI-H226 lung
NCI-H23 lung = tested on: NCI-H23 lung
NCI-H460 lung = tested on: NCI-H460 lung
NCI-H522 lung = tested on: NCI-H522 lung
NCI/ADR-RES ovarian = tested on: NCI/ADR-RES ovarian
OVCAR-3 ovarian = tested on: OVCAR-3 ovarian
OVCAR-5 ovarian = tested on: OVCAR-5 ovarian
OVCAR-8 ovarian = tested on: OVCAR-8 ovarian
PC-3 prostate = tested on: PC-3 prostate
RPMI-8226 leukemia = tested on: RPMI-8226 leukemia
RXF 393 renal = tested on: RXF 393 renal
SF-268 CNS = tested on: SF-268 CNS
SF-295 CNS = tested on: SF-295 CNS
SF-539 CNS = tested on: SF-539 CNS
SK-MEL-2 melanoma = tested on: SK-MEL-2 melanoma
SK-MEL-28 melanoma = tested on: SK-MEL-28 melanoma
SK-MEL-5 melanoma = tested on: SK-MEL-5 melanoma
SK-OV-3 ovarian = tested on: SK-OV-3 ovarian
SN12C renal = tested on: SN12C renal
SNB-19 CNS = tested on: SNB-19 CNS
SNB-75 CNS = tested on: SNB-75 CNS
SW-620 colon = tested on: SW-620 colon
T-47D breast = tested on: T-47D breast
TK-10 renal = tested on: TK-10 renal
U251 CNS = tested on: U251 CNS
UACC-257 melanoma = tested on: UACC-257 melanoma
UACC-62 melanoma = tested on: UACC-62 melanoma
UO-31 renal = tested on: UO-31 renal

Which GI50 (786-0 renal) does the source give for CCOC(=O)C1=C(C)NC2SC(=O)/C(=C\c3ccccc3Cl)N2C1c1ccccc1 (stereo not drawn) here?
Its GI50 is greater than 100 µM.

And the TGI (786-0 renal)?
The TGI was greater than 100 µM.

What about the GI50 (A498 renal) of the same compound?
Its GI50 is greater than 100 µM.

And the TGI (A498 renal)?
Its TGI is greater than 100 µM.

And the GI50 (A549 NSCLC)?
Its GI50 is greater than 100 µM.

What about the TGI (A549 NSCLC) of the same compound?
The TGI was greater than 100 µM.

What about the GI50 (ACHN renal) of the same compound?
The GI50 was greater than 100 µM.

What about the TGI (ACHN renal) of the same compound?
Its TGI is greater than 100 µM.

What about the GI50 (BT-549 breast) of the same compound?
Its GI50 is greater than 100 µM.

What about the TGI (BT-549 breast) of the same compound?
The TGI was greater than 100 µM.

And the GI50 (CAKI-1 renal)?
Its GI50 is greater than 100 µM.

What about the TGI (CAKI-1 renal) of the same compound?
Its TGI is greater than 100 µM.

What about the GI50 (CCRF-CEM leukemia) of the same compound?
Its GI50 is greater than 100 µM.

And the TGI (CCRF-CEM leukemia)?
The TGI was greater than 100 µM.

What about the GI50 (COLO 205 colon) of the same compound?
The GI50 was greater than 100 µM.

What about the TGI (COLO 205 colon) of the same compound?
The TGI was greater than 100 µM.

What about the GI50 (DU-145 prostate) of the same compound?
The GI50 was greater than 100 µM.

What about the TGI (DU-145 prostate) of the same compound?
Its TGI is greater than 100 µM.

What about the GI50 (EKVX NSCLC) of the same compound?
Its GI50 is greater than 100 µM.

What about the TGI (EKVX NSCLC) of the same compound?
The TGI was greater than 100 µM.

And the GI50 (HCC-2998 colon)?
Its GI50 is greater than 100 µM.

What about the TGI (HCC-2998 colon) of the same compound?
Its TGI is greater than 100 µM.

What about the GI50 (HCT-116 colon) of the same compound?
Its GI50 is greater than 100 µM.

What about the TGI (HCT-116 colon) of the same compound?
The TGI was greater than 100 µM.

And the GI50 (HCT-15 colon)?
Its GI50 is greater than 100 µM.

And the TGI (HCT-15 colon)?
Its TGI is greater than 100 µM.

What about the GI50 (HL-60(TB) leukemia) of the same compound?
The GI50 was 59.5 µM.

And the TGI (HL-60(TB) leukemia)?
The TGI was greater than 100 µM.

What about the GI50 (HOP-62 NSCLC) of the same compound?
Its GI50 is greater than 100 µM.

And the TGI (HOP-62 NSCLC)?
Its TGI is greater than 100 µM.

And the GI50 (HOP-92 NSCLC)?
The GI50 was greater than 100 µM.

And the TGI (HOP-92 NSCLC)?
Its TGI is greater than 100 µM.

What about the GI50 (HS 578T breast) of the same compound?
The GI50 was greater than 100 µM.

And the TGI (HS 578T breast)?
Its TGI is greater than 100 µM.

And the GI50 (HT29 colon)?
The GI50 was greater than 100 µM.

What about the TGI (HT29 colon) of the same compound?
The TGI was greater than 100 µM.

What about the GI50 (IGROV1 ovarian) of the same compound?
Its GI50 is greater than 100 µM.

What about the TGI (IGROV1 ovarian) of the same compound?
The TGI was greater than 100 µM.

What about the GI50 (K-562 leukemia) of the same compound?
The GI50 was greater than 100 µM.

What about the TGI (K-562 leukemia) of the same compound?
The TGI was greater than 100 µM.

And the GI50 (KM12 colon)?
The GI50 was greater than 100 µM.

What about the TGI (KM12 colon) of the same compound?
Its TGI is greater than 100 µM.

What about the GI50 (LOX IMVI melanoma) of the same compound?
Its GI50 is greater than 100 µM.

And the TGI (LOX IMVI melanoma)?
The TGI was greater than 100 µM.

And the GI50 (M14 melanoma)?
Its GI50 is greater than 100 µM.

And the TGI (M14 melanoma)?
The TGI was greater than 100 µM.

And the GI50 (MCF7 breast)?
Its GI50 is greater than 100 µM.

What about the TGI (MCF7 breast) of the same compound?
The TGI was greater than 100 µM.

And the GI50 (MDA-MB-231 breast)?
The GI50 was greater than 100 µM.

And the TGI (MDA-MB-231 breast)?
The TGI was greater than 100 µM.

And the GI50 (MDA-MB-435)?
The GI50 was greater than 100 µM.

What about the TGI (MDA-MB-435) of the same compound?
Its TGI is greater than 100 µM.

And the GI50 (NCI-H226 lung)?
The GI50 was greater than 100 µM.

What about the TGI (NCI-H226 lung) of the same compound?
The TGI was greater than 100 µM.

And the GI50 (NCI-H23 lung)?
Its GI50 is greater than 100 µM.

And the TGI (NCI-H23 lung)?
The TGI was greater than 100 µM.

What about the GI50 (NCI-H460 lung) of the same compound?
Its GI50 is greater than 100 µM.

What about the TGI (NCI-H460 lung) of the same compound?
Its TGI is greater than 100 µM.

What about the GI50 (NCI-H522 lung) of the same compound?
The GI50 was greater than 100 µM.

What about the TGI (NCI-H522 lung) of the same compound?
The TGI was greater than 100 µM.

And the GI50 (NCI/ADR-RES ovarian)?
The GI50 was greater than 100 µM.

What about the TGI (NCI/ADR-RES ovarian) of the same compound?
Its TGI is greater than 100 µM.

What about the GI50 (OVCAR-3 ovarian) of the same compound?
The GI50 was greater than 100 µM.

What about the TGI (OVCAR-3 ovarian) of the same compound?
The TGI was greater than 100 µM.

And the GI50 (OVCAR-5 ovarian)?
Its GI50 is greater than 100 µM.

And the TGI (OVCAR-5 ovarian)?
The TGI was greater than 100 µM.

What about the GI50 (OVCAR-8 ovarian) of the same compound?
Its GI50 is greater than 100 µM.

What about the TGI (OVCAR-8 ovarian) of the same compound?
The TGI was greater than 100 µM.

What about the GI50 (PC-3 prostate) of the same compound?
Its GI50 is 73.3 µM.

And the TGI (PC-3 prostate)?
The TGI was greater than 100 µM.

What about the GI50 (RPMI-8226 leukemia) of the same compound?
The GI50 was 79.7 µM.

What about the TGI (RPMI-8226 leukemia) of the same compound?
Its TGI is greater than 100 µM.

What about the GI50 (RXF 393 renal) of the same compound?
Its GI50 is greater than 100 µM.

What about the TGI (RXF 393 renal) of the same compound?
Its TGI is greater than 100 µM.

What about the GI50 (SF-268 CNS) of the same compound?
Its GI50 is greater than 100 µM.

And the TGI (SF-268 CNS)?
The TGI was greater than 100 µM.

What about the GI50 (SF-295 CNS) of the same compound?
The GI50 was greater than 100 µM.

What about the TGI (SF-295 CNS) of the same compound?
The TGI was greater than 100 µM.

And the GI50 (SF-539 CNS)?
Its GI50 is greater than 100 µM.

And the TGI (SF-539 CNS)?
The TGI was greater than 100 µM.

What about the GI50 (SK-MEL-2 melanoma) of the same compound?
The GI50 was greater than 100 µM.

And the TGI (SK-MEL-2 melanoma)?
The TGI was greater than 100 µM.

What about the GI50 (SK-MEL-28 melanoma) of the same compound?
The GI50 was greater than 100 µM.

And the TGI (SK-MEL-28 melanoma)?
Its TGI is greater than 100 µM.

What about the GI50 (SK-MEL-5 melanoma) of the same compound?
The GI50 was 50.2 µM.

And the TGI (SK-MEL-5 melanoma)?
The TGI was greater than 100 µM.

What about the GI50 (SK-OV-3 ovarian) of the same compound?
The GI50 was greater than 100 µM.

And the TGI (SK-OV-3 ovarian)?
The TGI was greater than 100 µM.

And the GI50 (SN12C renal)?
Its GI50 is greater than 100 µM.

What about the TGI (SN12C renal) of the same compound?
Its TGI is greater than 100 µM.

What about the GI50 (SNB-19 CNS) of the same compound?
The GI50 was greater than 100 µM.

And the TGI (SNB-19 CNS)?
Its TGI is greater than 100 µM.

And the GI50 (SNB-75 CNS)?
The GI50 was greater than 100 µM.

What about the TGI (SNB-75 CNS) of the same compound?
The TGI was greater than 100 µM.

What about the GI50 (SW-620 colon) of the same compound?
Its GI50 is greater than 100 µM.

And the TGI (SW-620 colon)?
Its TGI is greater than 100 µM.

And the GI50 (T-47D breast)?
The GI50 was 33.8 µM.

And the TGI (T-47D breast)?
Its TGI is greater than 100 µM.

What about the GI50 (TK-10 renal) of the same compound?
Its GI50 is greater than 100 µM.

And the TGI (TK-10 renal)?
The TGI was greater than 100 µM.

What about the GI50 (U251 CNS) of the same compound?
The GI50 was greater than 100 µM.

What about the TGI (U251 CNS) of the same compound?
The TGI was greater than 100 µM.

And the GI50 (UACC-257 melanoma)?
The GI50 was greater than 100 µM.

What about the TGI (UACC-257 melanoma) of the same compound?
Its TGI is greater than 100 µM.

And the GI50 (UACC-62 melanoma)?
The GI50 was greater than 100 µM.

What about the TGI (UACC-62 melanoma) of the same compound?
The TGI was greater than 100 µM.

What about the GI50 (UO-31 renal) of the same compound?
Its GI50 is greater than 100 µM.

What about the TGI (UO-31 renal) of the same compound?
Its TGI is greater than 100 µM.
